Patent publication US9777034B2, “Modular synthesis of amphiphilic Janus glycodendrimers and their self-assembly into glycodendrimersomes” (The Trustees of The University of Pennsylvania, priority 2013, dated 2017)

Key:
[1] = Self-assembly by injection of THF or ethanol solution into water or buffer, analysed by DLS (size, polydispersity, stability in time); conditions: PBS and HEPES buffers
Method: The resulting assemblies were first analyzed by dynamic light scattering (DLS) for size, polydispersity (PDI), and stability in time. Assemblies stable in time were subsequently analyzed by cryogenic-transmission electron microscopy (cryo-TEM) to determine their structure.
Dynamic light scattering (DLS) was performed with a Malvern Instruments particle sizer (Zetasizer® Nano S, Malvern Instruments, UK) equipped with 4 mW He—Ne laser 633 nm and avalanche photodiode positioned at 175° to the beam and temperature controlled cuvette holder. Instrument parameters were determined automatically along with measurement times. Experiments were performed in triplicate. The Janus-dendrimer (1 mg) dissolved in 100 μL of THF was injected into 2 mL of ultrapure water or buffer followed by 5 seconds of vortex mixing. DLS experiments were measured at 25° C. Different final concentration of dendrimersomes in water was prepared from varying the starting concentration of THF solution with the same injection volume (100 μL) into constant 2.0 mL of ultrapure water or buffer.

[2] = biological target: T1, galectin-3 (Gal-3) (Homo sapiens, UniProt P17931); assay: Agglutination of glycodendrimersomes with Gal-3; format: binding; conditions: [52bd]=1.0 mg/mL, [Gal-3]=0-4.0 mg/mL, 10 mM HEPES
T1 construct: made in house

[3] = biological target: T2, galectin-4 (Gal-4) (Homo sapiens, UniProt P56470); assay: Agglutination of glycodendrimersomes with Gal-4; format: binding; conditions: [52bd]=1.0 mg/mL, [Gal-4]=0-4.0 mg/mL, 10 mM HEPES
T2 construct: made in house
T2 sequence (P56470 1-323): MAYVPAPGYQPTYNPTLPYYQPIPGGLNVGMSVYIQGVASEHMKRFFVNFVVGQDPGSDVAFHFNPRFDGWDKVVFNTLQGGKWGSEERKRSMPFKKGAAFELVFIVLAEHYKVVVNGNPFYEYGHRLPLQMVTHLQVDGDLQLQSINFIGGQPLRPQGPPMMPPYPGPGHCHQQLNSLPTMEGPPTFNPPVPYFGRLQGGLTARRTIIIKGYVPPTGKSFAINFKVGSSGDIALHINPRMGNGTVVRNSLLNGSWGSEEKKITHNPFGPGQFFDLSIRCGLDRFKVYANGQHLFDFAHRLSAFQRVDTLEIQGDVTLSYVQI

[4] = Cryo-TEM of assemblies formed in water; format: physicochemical; conditions: injection into water, cryo-TEM
[5] = system: Viscum album L. agglutinin (VAA)

T1 sequence (P17931 whole entry): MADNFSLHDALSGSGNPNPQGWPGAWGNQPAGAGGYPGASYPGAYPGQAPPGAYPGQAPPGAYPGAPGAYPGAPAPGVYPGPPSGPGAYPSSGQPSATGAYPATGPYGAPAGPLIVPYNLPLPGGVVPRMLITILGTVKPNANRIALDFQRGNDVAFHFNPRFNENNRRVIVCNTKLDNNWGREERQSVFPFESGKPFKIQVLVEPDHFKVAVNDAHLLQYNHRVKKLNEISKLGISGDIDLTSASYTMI

## (3,5)12G1-PE-TRZ-4EOLac2 [Compound 52bd]
[1]
  stability of glycodendrimersomes in buffer: stable in buffer
[2]
  agglutination with Gal-3: agglutination
[3]
  agglutination with Gal-4: agglutination
[4]
  structure of assemblies formed in water: glycodendrimersomes
[5]
  agglutination with VAA: agglutination effect can be clearly visualized
